Measured values from paper PMC6222307, “Phenanthrenes from Juncus Compressus Jacq. with Promising Antiproliferative and Anti-HSV-2 Activities” (Molecules : A Journal of Synthetic Chemistry and Natural …, 2018).
Read-outs that look alike come from different tables or passages of the source. Values belong to the compound of their own block, whether it stands above or below them.

Legend:
HeLa cells [1] = test system: HeLa cells; design: method as in PMID 23979834; settings: read-out: cytotoxic activity; cited from earlier work
MCF-7 cells [2] = test system: MCF-7 cells; design: method as in PMID 23979834; settings: read-out: cytotoxic activity; cited from earlier work
MCF-7 cells [3] = test system: MCF-7 cells; design: method as in PMID 26584913; settings: cited from earlier work
A2780 cells = experiment: MTT antiproliferative assay, A2780; type: cell-based, human; settings: for IC50: read-out: Calculated IC50 Value; for inhibition at 10 µM / inhibition at 30 µM: read-out: Growth Inhibition (%) ± SEM
Procedure: (§1) The isolated phenanthrenes (Compounds 1–9) were tested for their antiproliferative activity against three human tumor cell lines (HeLa and SiHa (cervix adenocarcinoma) and A2780 (ovarian carcinoma)) using the 3-(4,5-dimethylthiazol-2-yl)-2,5-diphenyltetrazolium bromide (MTT) test with cisplatin as a positive control (Table 3). […] Based on the presented results, some structure-activity relationships could be obtained. […] Compounds bearing free hydroxy groups (in case of Compound 3) exerted more pronounced action than its methyl ether (Compound 7) or its oxymethylene derivative (Compound 6). The substantial difference in the activities of the isolated dimers (Compounds 2 and 8) could be attributed to the presence of a methyl group at C-6, which is favored in the monomers, too. Both the other cell lines were substantially less sensitive. […] Similarly, none of the presented agents elicited substantial (>40%) inhibition of the cell cancer proliferation during the applied 72 h of incubation against SiHa cells at 10 μM, and therefore, IC50 values were not determined.
(§2) The antiproliferative properties of the isolated phenanthrenes were determined on a panel of human malignant cell lines isolated from cervical (HeLa and SiHa) and ovarian cancers (A2780) purchased from the European Collection of Cell Cultures (ECCAC, Salisbury, UK). Cells were cultivated in minimal essential medium supplemented with 10% fetal bovine serum, 1% non-essential amino acids and an antibiotic-antimycotic mixture. All media and supplements were obtained from Lonza Group Ltd., (Basel, Switzerland). Near-confluent cancer cells were seeded onto a 96-well microplate (5000 cells/well) and after an overnight standing, medium containing the tested compounds at 10 and 30 µM was added. After incubation for 72 h under cell culture conditions, the living cells were assayed by the addition of 20 µL of 5 mg/mL 3-(4,5-dimethylthiazol-2-yl)-2,5-diphenyltetrazolium bromide (MTT) solution. MTT was converted by intact mitochondrial enzymes and precipitated as purple crystals during a 4 h contact period. The medium was then removed and the formazan was dissolved in 100 µL of DMSO during a 60 min period of shaking at 37 °C. Finally, the reduced MTT was assayed at 545 nm using a microplate reader. […] All in vitro experiments were carried out on two microplates with five parallel wells. Stock solutions of the tested compounds (10 mM) were prepared in DMSO. […] Cisplatin (Ebewe Pharma GmbH, Unterach, Austria) was used as a reference agent.

SiHa cells = experiment: MTT antiproliferative assay, SiHa; type: cell-based, human; settings: 72 h; for inhibition at 10 µM / inhibition at 30 µM: Homo sapiens, read-out: Growth Inhibition (%) ± SEM
Procedure: as §1, §2

HeLa cells [4] = experiment: MTT antiproliferative assay, HeLa; type: cell-based, human; settings: 72 h; for IC50: read-out: Calculated IC50 Value; for inhibition at 10 µM / inhibition at 30 µM: read-out: Growth Inhibition (%) ± SEM
Procedure: as §1, §2

[5] = test system: HepG2 (liver hepatocellular carcinoma); design: method as in PMID 26584913; settings: cited from earlier work
HeLa cells [6] = test system: HeLa cells; design: method as in PMID 26584913; settings: cited from earlier work
HSV-2 = test system: HSV-2; design: method as in PMID 11463529; settings: 6.25 µM; cited from earlier work
SMMC-7721 = test system: SMMC-7721; design: method as in PMID 26072042; settings: SMMC-7721, CCK-8 assay; cited from earlier work
MCF-7 = test system: MCF-7; design: method as in PMID 26072042; settings: MCF-7, CCK-8 assay; cited from earlier work
HepG2 = test system: HepG2; design: method as in PMID 26072042; settings: HepG2, CCK-8 assay; cited from earlier work
[7] = Homo sapiens, A2780, 10 μM, 72 h, MTT
[8] = Homo sapiens, A2780, 30 μM, 72 h, MTT

Structure (SMILES): Cc1c(O)ccc2c1CCc1cc(O)cc(C=O)c1-2 [2,7-dihydroxy-1-methyl-5-aldehyde-9,10-dihydrophenanthrene]
IC50 (HeLa cells [1]): 19.6 µM
IC50 (MCF-7 cells [2]): 9.17 µM

Structure (SMILES): COC(C)c1cc(O)cc2ccc3c(C)c(O)ccc3c12 (stereo not drawn) [5-(1-methoxyethyl)-1-methyl-phenanthren-2,7-diol]
IC50 (MCF-7 cells [3]): 10.9 µM

Structure (SMILES): N.N.[Cl][Pt][Cl] [Cisplatin, reference compound]
Growth Inhibition (%) ± SEM (A2780 cells; A2780, 10 μM, 72 h, MTT): 83.57 ± 1.21%
Growth Inhibition (%) ± SEM (A2780 cells; A2780, 30 μM, 72 h, MTT): 95.02 ± 0.28%
IC50 (A2780 cells; A2780, 72 h, MTT): 1.3 µM
Growth Inhibition (%) ± SEM (SiHa cells; 10 μM, MTT): 88.64 ± 0.50%
Growth Inhibition (%) ± SEM (SiHa cells; 30 μM, MTT): 90.18 ± 7.78%
IC50 (SiHa cells; MTT, read-out: Calculated IC50 Value): 7.84 µM
Growth Inhibition (%) ± SEM (HeLa cells [4]; 10 μM, MTT): 42.61 ± 2.33%
Growth Inhibition (%) ± SEM (HeLa cells [4]; 30 μM, MTT): 99.93 ± 0.26%
IC50 (HeLa cells [4]; MTT): 12.4 µM

IC50 (A2780 cells; Homo sapiens, A2780, 72 h, MTT): 13.2 µM
IC50 (HeLa cells [4]; Homo sapiens, MTT): 11.3 µM
Structure (SMILES): C=Cc1c(C)c(O)cc2c1-c1ccc(OC)c(C)c1CC2 [Compound 1, compressin A]
inhibition at 10 µM (A2780 cells; [7]): 47.6 ± 1.58%
inhibition at 30 µM (A2780 cells; [8]): 73 ± 0.47%
inhibition at 10 µM (SiHa cells; 10 μM, MTT): < 10%
inhibition at 30 µM (SiHa cells; 30 μM, MTT): 38.6 ± 0.78%
inhibition at 10 µM (HeLa cells [4]; Homo sapiens, 10 μM, MTT): 41.7 ± 1.1%
inhibition at 30 µM (HeLa cells [4]; Homo sapiens, 30 μM, MTT): 93.73 ± 0.36%

IC50 (HeLa cells [4]; Homo sapiens, MTT): 1.86 µM
Structure (SMILES): C=Cc1c(C)c(O)cc2c1-c1cc(-c3cc4c(c(C)c3O)CCc3cc(O)c(C)c(C=C)c3-4)c(O)c(C)c1CC2 [Compound 2, compressin B]
inhibition at 10 µM (A2780 cells; [7]): < 10%
inhibition at 30 µM (A2780 cells; [8]): 64.8 ± 1.95%
inhibition at 10 µM (SiHa cells; 10 μM, MTT): < 10%
inhibition at 30 µM (SiHa cells; 30 μM, MTT): 32.8 ± 0.88%
inhibition at 10 µM (HeLa cells [4]; Homo sapiens, 10 μM, MTT): 92.03 ± 0.44%
inhibition at 30 µM (HeLa cells [4]; Homo sapiens, 30 μM, MTT): 92.38 ± 0.15%

IC50 (HeLa cells [4]; Homo sapiens, MTT): 3.68 µM
Structure (SMILES): C=Cc1cc(O)cc2c1-c1ccc(O)c(C)c1CC2 [Compound 3, effusol]
inhibition at 10 µM (A2780 cells; [7]): < 10%
inhibition at 30 µM (A2780 cells; [8]): 50.5 ± 1.59%
inhibition at 10 µM (SiHa cells; 10 μM, MTT): < 10%
inhibition at 30 µM (SiHa cells; 30 μM, MTT): < 10%
inhibition at 10 µM (HeLa cells [4]; Homo sapiens, 10 μM, MTT): 96.37 ± 0.28%
inhibition at 30 µM (HeLa cells [4]; Homo sapiens, 30 μM, MTT): 97.77 ± 0.27%

Structure (SMILES): COC(C)c1cc(O)cc2c1-c1ccc(O)c(C)c1CC2 (stereo not drawn) [Compound 4, effususol]
inhibition at 10 µM (A2780 cells; [7]): 18.3 ± 0.42%
inhibition at 30 µM (A2780 cells; [8]): 72 ± 1.06%
inhibition at 10 µM (SiHa cells; 10 μM, MTT): < 10%
inhibition at 30 µM (SiHa cells; 30 μM, MTT): 14.2 ± 2.75%
inhibition at 10 µM (HeLa cells [4]; Homo sapiens, 10 μM, MTT): < 10%
inhibition at 30 µM (HeLa cells [4]; Homo sapiens, 30 μM, MTT): 30.4 ± 1.91%

IC50 (HeLa cells [4]; Homo sapiens, MTT): 4.17 µM
Structure (SMILES): C=Cc1cc(CO)cc2c1-c1ccc(O)c(C)c1CC2 [Compound 6, 2-hydroxy-1-methyl-7-oxymethylene-5-vinyl-9,10-dihydrophenanthrene]
inhibition at 10 µM (A2780 cells; [7]): < 10%
inhibition at 30 µM (A2780 cells; [8]): < 10%
inhibition at 10 µM (SiHa cells; 10 μM, MTT): < 10%
inhibition at 30 µM (SiHa cells; 30 μM, MTT): 10.2 ± 1.47%
inhibition at 10 µM (HeLa cells [4]; Homo sapiens, 10 μM, MTT): 96.8 ± 0.28%
inhibition at 30 µM (HeLa cells [4]; Homo sapiens, 30 μM, MTT): 98.77 ± 0.24%

IC50 (HeLa cells [4]; Homo sapiens, MTT): 10.7 µM
Structure (SMILES): C=Cc1cc(O)cc2c1-c1ccc(OC)c(C)c1CC2 [Compound 7, 7-hydroxy-1-methyl-2-methoxy-5-vinyl-9,10-dihydrophenanthrene]
inhibition at 10 µM (A2780 cells; [7]): < 10%
inhibition at 30 µM (A2780 cells; [8]): 63.2 ± 2.54%
inhibition at 10 µM (SiHa cells; 10 μM, MTT): 14.2 ± 0.98%
inhibition at 30 µM (SiHa cells; 30 μM, MTT): 29.5 ± 3.36%
inhibition at 10 µM (HeLa cells [4]; Homo sapiens, 10 μM, MTT): 45.4 ± 1.57%
inhibition at 30 µM (HeLa cells [4]; Homo sapiens, 30 μM, MTT): 92.36 ± 0.23%

Structure (SMILES): C=Cc1cc(O)cc2c1-c1cc(-c3cc4c(c(C)c3O)CCc3cc(O)cc(C=C)c3-4)c(O)c(C)c1CC2 [Compound 8, effususin A]
inhibition at 10 µM (A2780 cells; [7]): < 10%
inhibition at 30 µM (A2780 cells; [8]): 72.7 ± 1.82%
inhibition at 10 µM (SiHa cells; 10 μM, MTT): < 10%
inhibition at 30 µM (SiHa cells; 30 μM, MTT): 14.4 ± 1.48%
inhibition at 10 µM (HeLa cells [4]; Homo sapiens, 10 μM, MTT): < 10%
inhibition at 30 µM (HeLa cells [4]; Homo sapiens, 30 μM, MTT): 10.4 ± 0.47%

Structure (SMILES): C=Cc1cc(O)cc2ccc3c(C)c(O)ccc3c12 [Compound 9, dehydroeffusol]
inhibition at 10 µM (A2780 cells; Homo sapiens, A2780, 72 h): < 10%
inhibition at 30 µM (A2780 cells; Homo sapiens, A2780, 72 h): 57.3 ± 2.58%
inhibition at 10 µM (SiHa cells): < 10%
inhibition at 30 µM (SiHa cells): 28.7 ± 2.01%
IC50 (HeLa cells [4]; Homo sapiens): 7.75 µM
inhibition at 10 µM (HeLa cells [4]; Homo sapiens): 75.2 ± 2.48%
inhibition at 30 µM (HeLa cells [4]; Homo sapiens): 96.5 ± 0.32%

Structure (SMILES): Cc1c(O)ccc2c1ccc1cc(O)cc(C=O)c12 [Dehydroeffusal]
IC50 [5]: 12.4 µM
IC50 (HeLa cells [6]): 13.1 µM

Structure (SMILES): Nc1nc2c(ncn2COCCO)c(=O)[nH]1 [acyclovir]
reduction of HSV-2 yield (HSV-2): 1–5.06 log10

Structure (SMILES): COc1cccc2c1C(=O)c1c(O)c3c(c(O)c1C2=O)C[C@@](O)(C(=O)CO)C[C@@H]3O[C@H]1C[C@H](N)[C@H](O)[C@H](C)O1 [adriamycin, reference compound]
IC50 (HeLa cells [1]): 0.539 µM
IC50 (MCF-7 cells [2]): 0.406 µM

Structure (SMILES): C=Cc1cc(O)cc2c1-c1cc(-c3c(O)cc(C=C)c4c3ccc3c(C)c(O)ccc34)c(O)c(C)c1CC2 [effususin B]
IC50 (SMMC-7721): 13.6 µM
IC50 (MCF-7): 12.5 µM
IC50 (HepG2): 12.9 µM

Structure (SMILES): CC(=O)O[C@H]1C(=O)[C@@]2(C)[C@H]([C@H](OC(=O)c3ccccc3)[C@]3(O)C[C@H](OC(=O)[C@H](O)[C@@H](NC(=O)c4ccccc4)c4ccccc4)C(C)=C1C3(C)C)[C@]1(OC(C)=O)CO[C@@H]1C[C@@H]2O [paclitaxel, reference compound]
IC50 (SMMC-7721): 0.09 µM
IC50 (MCF-7): 28.6 µM
IC50 (HepG2): 36.8 µM
